Experimental findings from publication PMC11110727, “Exploiting thiol-functionalized benzosiloxaboroles for achieving diverse substitution patterns – synthesis, characterization and biological evaluation of promising antibacterial agents” (RSC Medicinal Chemistry, 2024) are described below.

A word on the MIC: it is the lowest concentration that inhibits growth of the organism. As a reminder, the MBC is the lowest tested concentration that kills the bacteria rather than only halting them. Low readings indicate greater bactericidal potency, high ones weaker bactericidal potency. Usually IC50 stands for the concentration that gives 50% inhibition.

The subject of data set [1] is E. coli ATCC 25922. Kind of data set: Antibacterial activity: MIC/MBC, MIC with PAβN, disc-diffusion. In kind it is cell-based, Escherichia coli. The settings on record: E. coli ATCC 25922; for MIC: read-out: MIC; for diameter of inhibition zone: (-) = zone not observed, paper discs 9 mm; for -fold reduction of MIC in the presence of PAβN: PAβN 20 μg mL^−1, MHB + 1 mM MgSO4. As to the method: (§1) Direct antimicrobial activity was determined against the following standard strains: (1) Gram-positive cocci: methicillin-sensitive Staphylococcus aureus ATCC 6538P (MSSA), methicillin-resistant S. aureus subsp. aureus ATCC 43300 (MRSA), S. epidermidis ATCC 12228, Enterococcus faecium ATCC 6057, E. faecalis ATCC 29212, Bacillus subtilis ATCC 6633; (2) Gram-negative bacteria from Enterobacteriales order: Klebsiella pneumoniae ATCC 13883, Escherichia coli ATCC 25922, Enterobacter cloacae DSM 6234, Proteus mirabilis ATCC 12453, Serratia marcescens ATCC 13880; (3) Gram-negative non-fermentative rods: Acinetobacter baumannii ATCC 19606, Pseudomonas aeruginosa ATCC 27853, Stenotrophomonas maltophilia ATCC 12714, S. maltophilia ATCC 13637, Burkholderia cepacia ATCC 25416, Bordetella bronchiseptica ATCC 4617; (4) yeasts: Candida albicans ATCC 90028, C. krusei ATCC 6258, C. parapsilosis ATCC 22019, C. tropicalis (Castellani) Berkhout ATCC 750, C. tropicalis IBA 171, C. guilliermondii IBA 155, and Saccharomyces cerevisiae ATCC 9763. Moreover, 5 clinical strains of methicillin-resistant S. aureus were also included: NMI 664 K, NMI 1576 K, NMI 1712 K, NMI 1991 K, and NMI 2541 K. All strains were stored at −80 °C. Prior to testing, each bacterial strain was subcultured twice on tryptic soy agar TSA (bioMerieux) medium and yeast strains on Sabouraud dextrose agar (bioMerieux) for 24–48 h at 30 °C to ensure viability. The antimicrobial activity was evaluated as previously described[26] by the disc-diffusion method and the MIC determination assays according to the EUCAST (ref. [71] and [72]) and CLSI (ref. [53] and [73]) recommendations. Assessment of bactericidal (MBC) and fungicidal (MFC) activities was performed according to the CLSI recommendations.[54,74] […] The new benzosiloxaboroles were dissolved in DMSO (Sigma).
(§2) Considering that the MDR efflux pumps often contribute to Gram-negative rod resistance, the MIC values of studied agents, with or without the pump inhibitor, PAβN (20 μg mL^−1) (Sigma), were determined.[75] The MIC was determined using Mueller–Hinton II broth medium (MHB) (Becton Dickinson) by the broth microdilution method, according to the CLSI guideliness.[53] To minimize the influence of PAβN on the destabilization of bacterial cell covers, the tests were conducted in the presence of 1 mM MgSO4 (Sigma).[76] At least a 4-fold reduction in the MIC value after the addition of PAβN was considered significant.[56,77]
Background: A growth-free zone around the sample is the usual read-out of agar diffusion tests.

The test system of data set [2] is B. bronchiseptica ATCC 4617. Kind of data set: Antibacterial activity: MIC/MBC, disc-diffusion. In kind it is cell-based, Bordetella bronchiseptica. As to conditions: B. bronchiseptica ATCC 4617; for MIC: read-out: MIC. How it is done: as §1, §2
For data set [3], the system named is C. albicans ATCC 90028. Kind of data set: Antifungal activity: MIC/MFC, disc-diffusion. In kind it is cell-based, Candida albicans. As to conditions: for MIC: Candida albicans, ATCC90028, read-out: MIC; for diameter of inhibition zone: C. albicans ATCC 90028, (-) = zone not observed, paper discs 9 mm. As to the method:
Direct antimicrobial activity was determined against the following standard strains: (1) Gram-positive cocci: methicillin-sensitive Staphylococcus aureus ATCC 6538P (MSSA), methicillin-resistant S. aureus subsp. aureus ATCC 43300 (MRSA), S. epidermidis ATCC 12228, Enterococcus faecium ATCC 6057, E. faecalis ATCC 29212, Bacillus subtilis ATCC 6633; (2) Gram-negative bacteria from Enterobacteriales order: Klebsiella pneumoniae ATCC 13883, Escherichia coli ATCC 25922, Enterobacter cloacae DSM 6234, Proteus mirabilis ATCC 12453, Serratia marcescens ATCC 13880; (3) Gram-negative non-fermentative rods: Acinetobacter baumannii ATCC 19606, Pseudomonas aeruginosa ATCC 27853, Stenotrophomonas maltophilia ATCC 12714, S. maltophilia ATCC 13637, Burkholderia cepacia ATCC 25416, Bordetella bronchiseptica ATCC 4617; (4) yeasts: Candida albicans ATCC 90028, C. krusei ATCC 6258, C. parapsilosis ATCC 22019, C. tropicalis (Castellani) Berkhout ATCC 750, C. tropicalis IBA 171, C. guilliermondii IBA 155, and Saccharomyces cerevisiae ATCC 9763. Moreover, 5 clinical strains of methicillin-resistant S. aureus were also included: NMI 664 K, NMI 1576 K, NMI 1712 K, NMI 1991 K, and NMI 2541 K. All strains were stored at −80 °C. Prior to testing, each bacterial strain was subcultured twice on tryptic soy agar TSA (bioMerieux) medium and yeast strains on Sabouraud dextrose agar (bioMerieux) for 24–48 h at 30 °C to ensure viability. The antimicrobial activity was evaluated as previously described[26] by the disc-diffusion method and the MIC determination assays according to the EUCAST (ref. [71] and [72]) and CLSI (ref. [53] and [73]) recommendations. Assessment of bactericidal (MBC) and fungicidal (MFC) activities was performed according to the CLSI recommendations.[54,74] The following reference agents were used: fluconazole (in the case of fungi), linezolid (for Gram-positive bacteria), and nitrofurantoin (for Gram-negative rods). The new benzosiloxaboroles were dissolved in DMSO (Sigma).

For data set [4], the system named is Human normal lung fibroblasts MRC-5. Nature of the data set: MTT-based viability (cytotoxicity) assay. As to the method: To evaluate the cytotoxic effect of the tested compounds, an MTT-based assay was performed. […] Moreover, based on available IC50 and MIC (for standard and clinical S. aureus MRSA strains) values, the selectivity index (SI) was calculated for several compounds as the IC50/MIC ratio (Table 5).[60]
MRC-5 pd30 human fibroblasts (ECACC) were cultured in MEME, Minimum Essential Medium Eagle (Merck), supplemented with 10% fetal bovine serum (Merck), 2 mM L-glutamine, antibiotics (100 U mL^−1 penicillin, 100 μg mL^−1 streptomycin, Merck) and 1% non-essential amino acids (Merck). Cells were grown in 75 cm^2 cell culture flasks (Sarstedt), in a humidified atmosphere of CO2/air (5/95%) at 37 °C. MTT-based viability assay was conducted as described previously.[26] Optical densities were measured at 570 nm using a BioTek microplate reader. All measurements were carried out in three replicates and the results expressed as a percent of viable cells versus control cells. […] The selectivity index (SI) was calculated as [drawing 30] , in accordance with previously described protocols.[60]

The mark [5] stands for this setting: Bordetella bronchiseptica, ATCC4617.

In brackets after ≈: the same amount, converted by molar mass. Bounds are passed on as bounds.

Turning to `C[Si]1(C)OB(O)c2cc(F)c(SCCC(=O)Nc3cnccn3)c(F)c21` [Compound 10, 3-((5,7-Difluoro-3-hydroxy-1,1-dimethyl-1,3-dihydrobenzo[c][1,2,5]oxasilaborol-6-yl)thio)-N-(pyrazin-2-yl)propanamide], the MIC in data set [1] (Escherichia coli, ATCC25922) is > 400 µg/mL; in data set [2] (setting [5]) it was > 400 µg/mL; in data set [3], > 400 µg/mL.
`C[Si]1(C)OB(O)c2ccc(SC3CC(=O)NC3=O)c(F)c21` (stereo not shown) [Compound 13, 3-((7-Fluoro-3-hydroxy-1,1-dimethyl-1,3-dihydrobenzo[c][1,2,5]oxasilaborol-6-yl)thio)pyrrolidine-2,5-dione]: the “diameter of inhibition zone” value in data set [1] was found to be 19 mm; in data set [2] ((-) = zone not observed, paper discs 9 mm) it was 26 mm. For the same compound, the MBC in data set [1] (Escherichia coli, ATCC25922) amounted to 50 µg/mL (≈ 154 µM); in data set [2] (setting [5]), 25 µg/mL (≈ 76.9 µM). Besides, the minimum inhibitory concentration (MIC) is 25 µg/mL (≈ 76.9 µM) in data set [1] (Escherichia coli, ATCC25922); 12.5 µg/mL (≈ 38.4 µM) in data set [2] (setting [5]); > 400 µg/mL in data set [3].
In the case of `COC(=O)CCSc1ccc2c(c1F)[Si](C)(C)OB2O` [Compound 4, Methyl 3-((7-fluoro-3-hydroxy-1,1-dimethyl-1,3-dihydrobenzo[c][1,2,5]oxasilaborol-6-yl)thio)propanoate], the “diameter of inhibition zone” value is 15 mm in data set [1] and 12 mm in data set [3]. In addition, the “-fold reduction of MIC in the presence of PAβN” value (“-fold reduction of MIC” below) in data set [1] is 8 -fold. Besides, the minimum inhibitory concentration (MIC) in data set [1] (Escherichia coli, ATCC25922) was 400 µg/mL (≈ 1270 µM); in data set [2] (setting [5]) it was > 400 µg/mL; in data set [3] it was > 400 µg/mL.
For the compound `C[Si]1(C)OB(O)c2ccc(SCCC(=O)OCCCCCC[n+]3ccccc3)c(F)c21` [Compound 19, 1-(6-((3-((7-Fluoro-3-hydroxy-1,1-dimethyl-1,3-dihydrobenzo[c][1,2,5]oxasilaborol-6-yl)thio)propanoyl)oxy)hexyl)pyridin-1-ium trifluoromethanesulfonate], the MIC in data set [1] (Escherichia coli, ATCC25922) is > 400 µg/mL; in data set [2] (setting [5]), > 400 µg/mL; in data set [3], > 400 µg/mL.
Consider `CC(=O)CCSc1c(F)cc2c(c1F)[Si](C)(C)OB2O` [Compound 3, 4-((5,7-Difluoro-3-hydroxy-1,1-dimethyl-1,3-dihydrobenzo[c][1,2,5]oxasilaborol-6-yl)thio)butan-2-one], for which the minimum inhibitory concentration (MIC) is > 400 µg/mL in data set [1] (Escherichia coli, ATCC25922); 50 µg/mL (≈ 158 µM) in data set [2] (setting [5]); > 400 µg/mL in data set [3].
Regarding `C[Si]1(C)OB(O)c2cc(F)c(S)c(F)c21` [Compound 1e, 5,7-Difluoro-6-mercapto-1,1-dimethylbenzo[c][1,2,5]oxasilaborol-3(1H)-ol], the MIC in data set [1] (Escherichia coli, ATCC25922) was > 400 µg/mL; in data set [2] (setting [5]), > 400 µg/mL; in data set [3], 100 µg/mL (≈ 406 µM). In addition, the “diameter of inhibition zone” value in data set [3] was 15 mm.
As to `Cc1cc(NC(=O)CCSc2c(F)cc3c(c2F)[Si](C)(C)OB3O)no1` [Compound 11, 3-((5,7-Difluoro-3-hydroxy-1,1-dimethyl-1,3-dihydrobenzo[c][1,2,5]oxasilaborol-6-yl)thio)-N-(5-methylisoxazol-3-yl)propanamide], the MIC was > 400 µg/mL in data set [1] (Escherichia coli, ATCC25922); > 400 µg/mL in data set [2] (setting [5]); > 400 µg/mL in data set [3].
`C[Si]1(C)OB(O)c2cc(F)c(SCCC(N)=O)c(F)c21` [Compound 7, 3-((5,7-Difluoro-3-hydroxy-1,1-dimethyl-1,3-dihydrobenzo[c][1,2,5]oxasilaborol-6-yl)thio)propanamide]: in data set [1], the “-fold reduction of MIC” value is listed as 4 -fold. In addition, the minimum inhibitory concentration (MIC) was > 400 µg/mL in data set [1] (Escherichia coli, ATCC25922); > 400 µg/mL in data set [2] (setting [5]); > 400 µg/mL in data set [3].
For the compound `C[Si]1(C)OB(O)c2ccc(SCCS(=O)(=O)c3ccccc3)c(F)c21` [Compound 21, 7-Fluoro-1,1-dimethyl-6-((2-(phenylsulfonyl)ethyl)thio)benzo[c][1,2,5]oxasilaborol-3(1H)-ol], in data set [1], the “diameter of inhibition zone” value is 11 mm. Also, in data set [1], the “-fold reduction of MIC” value is 16 -fold. Further, the minimum inhibitory concentration (MIC) was > 400 µg/mL in data set [1] (Escherichia coli, ATCC25922); > 400 µg/mL in data set [2] (setting [5]); 400 µg/mL (≈ 1010 µM) in data set [3].
Regarding `C[Si]1(C)OB(O)c2ccc(S)c(F)c21` [Compound 2e, 7-Fluoro-6-mercapto-1,1-dimethylbenzo[c][1,2,5]oxasilaborol-3(1H)-ol], the minimal inhibitory concentration (MIC) was > 100 µg/mL in data set [1] (Escherichia coli, ATCC25922); > 100 µg/mL in data set [2] (setting [5]); > 100 µg/mL in data set [3].
For the compound `C[Si]1(C)OB(O)c2cc(F)c(SCCC(=O)N3CCOCC3)c(F)c21` [Compound 8, 3-((5,7-Difluoro-3-hydroxy-1,1-dimethyl-1,3-dihydrobenzo[c][1,2,5]oxasilaborol-6-yl)thio)-1-morpholinopropan-1-one], the MIC was > 400 µg/mL in data set [1] (Escherichia coli, ATCC25922); > 400 µg/mL in data set [2] (setting [5]); > 400 µg/mL in data set [3].
Consider `C[Si]1(C)OB(O)c2cc(F)c(S(=O)(=O)N3CCOCC3)c(F)c21` [Compound 29, 5,7-Difluoro-1,1-dimethyl-6-(morpholinosulfonyl)benzo[c][1,2,5]oxasilaborol-3(1H)-ol], for which the “-fold reduction of MIC” value in data set [1] is 2 -fold. In addition, the MIC in data set [1] (Escherichia coli, ATCC25922) was > 400 µg/mL; in data set [2] (setting [5]), > 400 µg/mL. In addition, the “viability of MRC-5” value in data set [4] (6.25 µg·mL−1, 48 h) was 90.1±3.4 % of control ± SD; in data set [4] (12.5 µg·mL−1, 48 h), 90.6±4.5 % of control ± SD; in data set [4] (25 µg·mL−1, 48 h), 86.8±4.3 % of control ± SD; in data set [4] (50 µg·mL−1, 48 h), 80.8±3.4 % of control ± SD; in data set [4] (100 µg·mL−1, 48 h), 74.1±0.5 % of control ± SD; in data set [4] (200 µg·mL−1, 48 h) it was 69.6±2.4 % of control ± SD. The “viability of MRC-5” value in data set [4] (400 µg·mL−1, 48 h) was 60.4±5.2 % of control ± SD. Further, the IC50 in data set [4] (Homo sapiens, MRC5, 48 h) was > 400 µg/mL.
